pIC50: −log10 of the molar value.
Key:
Assay in all cases: cells
[1] = tested on: SAOS-2; format: functional, cell-based, Homo sapiens; settings: Homo sapiens, SAOS-2;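 also: growth inhibition of human Saos-2 cells determined by a cell viability assay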
Description: SANGER: Inhibition of human Saos-2 cell growth in a cell viability assay.

[2] = tested on: GT3TKB; format: functional, cell-based, Homo sapiens; settings: Homo sapiens, GT3TKB;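 also: growth inhibition of the cell line, read out with a cell viability assay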
Description: SANGER: Inhibition of human GT3TKB cell growth in a cell viability assay.

[3] = tested on: BHY; format: functional, cell-based, Homo sapiens; settings: Homo sapiens, BHY;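 also: cell growth inhibition read out by a viability assay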
Description: SANGER: Inhibition of human BHY cell growth in a cell viability assay.

[4] = tested on: P12-Ichikawa; format: functional, cell-based; settings: Homo sapiens
[5] = tested on: BCPAP; format: functional, cell-based, Homo sapiens; settings: Homo sapiens, BCPAP;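 also: growth inhibition of BCPAP cells, read out in a cell viability assay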
Description: SANGER: Inhibition of human BCPAP cell growth in a cell viability assay.

[6] = tested on: DMS-273; format: functional, cell-based, Homo sapiens; settings: Homo sapiens, DMS-273
Description: SANGER: Inhibition of human DMS-273 cell growth in a cell viability assay.

[7] = tested on: UACC-62; format: functional, cell-based, Homo sapiens; settings: Homo sapiens, UACC-62;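 also: growth inhibition of human UACC-62 cells, read out by a cell viability assay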
Description: SANGER: Inhibition of human UACC-62 cell growth in a cell viability assay.

[8] = tested on: HCC1806; format: functional, cell-based, Homo sapiens; settings: Homo sapiens, HCC1806;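 also: growth inhibition of the cancer cell line, determined with a cell viability assay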
Description: SANGER: Inhibition of human HCC1806 cell growth in a cell viability assay.

[9] = tested on: SK-UT-1; format: functional, cell-based, Homo sapiens; settings: Homo sapiens, SK-UT-1;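 also: growth inhibition of SK-UT-1 cells, measured by a cell viability assay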
Description: SANGER: Inhibition of human SK-UT-1 cell growth in a cell viability assay.

[10] = tested on: NB17; format: functional, cell-based; settings: Homo sapiens;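 also: growth inhibition of NB17 cells, read out with a cell viability assay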
Description: SANGER: Inhibition of human NB17 cell growth in a cell viability assay.

[11] = tested on: MS-1; format: functional, cell-based; settings: Homo sapiens;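 also: growth inhibition of MS-1 cells, read out by cell viability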
Description: SANGER: Inhibition of human MS-1 cell growth in a cell viability assay.

[12] = tested on: NCI-H2122; format: functional, cell-based, Homo sapiens; settings: Homo sapiens, NCI-H2122;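 also: growth inhibition of the cells, read out with a cell viability assay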
Description: SANGER: Inhibition of human NCI-H2122 cell growth in a cell viability assay.

[13] = tested on: KOSC-2; format: functional, cell-based, Homo sapiens; settings: Homo sapiens, KOSC-2;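 also: growth inhibition of KOSC-2 cells, read out by a cell viability assay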
Description: SANGER: Inhibition of human KOSC-2 cell growth in a cell viability assay.

[14] = tested on: MFM-223; format: functional, cell-based, Homo sapiens; settings: Homo sapiens, MFM-223
Description: SANGER: Inhibition of human MFM-223 cell growth in a cell viability assay.

[15] = tested on: NCI-H1355; format: functional, cell-based, Homo sapiens; settings: Homo sapiens, NCI-H1355;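 also: growth inhibition of human NCI-H1355 cells, read out by a cell viability assay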
Description: SANGER: Inhibition of human NCI-H1355 cell growth in a cell viability assay.

[16] = tested on: COR-L23; format: functional, cell-based, Homo sapiens; settings: Homo sapiens, COR-L23;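 also: cell viability assay measuring how strongly compounds suppress growth of COR-L23 cells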
Description: SANGER: Inhibition of human COR-L23 cell growth in a cell viability assay.

[17] = tested on: SK-OV-3; format: functional, cell-based, Homo sapiens; settings: Homo sapiens, SK-OV-3;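 also: growth inhibition of SK-OV-3 human cells, read out with a cell viability assay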
Description: SANGER: Inhibition of human SK-OV-3 cell growth in a cell viability assay.

[18] = tested on: D-502MG; format: functional, cell-based, Homo sapiens; settings: Homo sapiens, D-502MG
Description: SANGER: Inhibition of human D-502MG cell growth in a cell viability assay.

[19] = tested on: CAKI-1; format: functional, cell-based, Homo sapiens; settings: Homo sapiens, CAKI-1;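 also: growth inhibition of CAKI-1 cells, measured by a cell viability assay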
Description: SANGER: Inhibition of human CAKI-1 cell growth in a cell viability assay.

[20] = tested on: RPMI-8866; format: functional, cell-based; settings: Homo sapiens
Description: SANGER: Inhibition of human RPMI-8866 cell growth in a cell viability assay.

[21] = tested on: CaR-1; format: functional, cell-based, Homo sapiens; settings: Homo sapiens, CaR-1;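 also: growth inhibition of human CaR-1 cancer cells, read out with a cell viability assay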
Description: SANGER: Inhibition of human CaR-1 cell growth in a cell viability assay.

[22] = tested on: KYSE-180; format: functional, cell-based, Homo sapiens; settings: Homo sapiens, KYSE-180;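 also: growth inhibition of KYSE-180 cells, read out with a cell viability assay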
Description: SANGER: Inhibition of human KYSE-180 cell growth in a cell viability assay.

[23] = tested on: IST-SL1; format: functional, cell-based, Homo sapiens; settings: Homo sapiens, IST-SL1;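 also: growth inhibition of human IST-SL1 cells, read out with a cell viability assay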
Description: SANGER: Inhibition of human IST-SL1 cell growth in a cell viability assay.

[24] = tested on: OAW-28; format: functional, cell-based, Homo sapiens; settings: Homo sapiens, OAW-28;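 also: growth inhibition of OAW-28 cells, read out with a cell viability assay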
Description: SANGER: Inhibition of human OAW-28 cell growth in a cell viability assay.

[25] = tested on: A4-Fuk; format: functional, cell-based; settings: Homo sapiens;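 also: growth inhibition of A4-Fuk cells, read out by a cell viability assay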
Description: SANGER: Inhibition of human A4-Fuk cell growth in a cell viability assay.

[26] = tested on: NUGC-3; format: functional, cell-based, Homo sapiens; settings: Homo sapiens, NUGC-3;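 also: growth inhibition of human NUGC-3 cells, read out with a cell viability assay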
Description: SANGER: Inhibition of human NUGC-3 cell growth in a cell viability assay.

[27] = tested on: M14; format: functional, cell-based, Homo sapiens; settings: Homo sapiens, M14;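 also: growth inhibition of M14 cells, read out with a cell viability assay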
Description: SANGER: Inhibition of human M14 cell growth in a cell viability assay.

[28] = tested on: MHH-ES-1; format: functional, cell-based, Homo sapiens; settings: Homo sapiens, MHH-ES-1;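 also: cell growth inhibition measured by a cell viability assay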
Description: SANGER: Inhibition of human MHH-ES-1 cell growth in a cell viability assay.

[29] = tested on: VA-ES-BJ; format: functional, cell-based, Homo sapiens; settings: Homo sapiens, VA-ES-BJ;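 also: growth inhibition of the VA-ES-BJ cell line, read out by a cell viability assay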
Description: SANGER: Inhibition of human VA-ES-BJ cell growth in a cell viability assay.

[30] = tested on: HCC1954; format: functional, cell-based, Homo sapiens; settings: Homo sapiens, HCC1954;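 also: growth inhibition of human HCC1954 cells, read out with a cell viability assay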
Description: SANGER: Inhibition of human HCC1954 cell growth in a cell viability assay.

[31] = tested on: IST-MEL1; format: functional, cell-based, Homo sapiens; settings: Homo sapiens, IST-MEL1;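 also: growth inhibition of the cell line, read out with a cell viability assay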
Description: SANGER: Inhibition of human IST-MEL1 cell growth in a cell viability assay.

[32] = tested on: ME-180; format: functional, cell-based; settings: Homo sapiens;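 also: cell viability assay measuring growth inhibition of ME-180 cells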
Description: SANGER: Inhibition of human ME-180 cell growth in a cell viability assay.

[33] = tested on: NCI-H1304; format: functional, cell-based; settings: Homo sapiens;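 also: growth inhibition of the cancer cell line, measured in a cell viability assay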
Description: SANGER: Inhibition of human NCI-H1304 cell growth in a cell viability assay.

[34] = tested on: A498; format: functional, cell-based, Homo sapiens; settings: Homo sapiens, A498;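 also: growth inhibition of human A498 cells, read out with a cell viability assay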
Description: SANGER: Inhibition of human A498 cell growth in a cell viability assay.

[35] = tested on: MDA-MB-453; format: functional, cell-based, Homo sapiens; settings: Homo sapiens, MDA-MB-453
Description: SANGER: Inhibition of human MDA-MB-453 cell growth in a cell viability assay.

[36] = tested on: FaDu; format: functional, cell-based, Homo sapiens; settings: Homo sapiens, FaDu;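 also: cell viability readout of growth inhibition in FaDu cells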
Description: SANGER: Inhibition of human FADU cell growth in a cell viability assay.

[37] = tested on: KALS-1; format: functional, cell-based, Homo sapiens; settings: Homo sapiens, KALS-1;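 also: growth inhibition of KALS-1 cells, determined with a cell viability assay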
Description: SANGER: Inhibition of human KALS-1 cell growth in a cell viability assay.

[38] = tested on: TE-11; format: functional, cell-based, Homo sapiens; settings: Homo sapiens, TE-11;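 also: growth inhibition of human TE-11 cells, read out by a cell viability assay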
Description: SANGER: Inhibition of human TE-11 cell growth in a cell viability assay.

[39] = tested on: MMAC-SF; format: functional, cell-based, Homo sapiens; settings: Homo sapiens, MMAC-SF;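 also: growth inhibition of human MMAC-SF cells, read out with a cell viability assay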
Description: SANGER: Inhibition of human MMAC-SF cell growth in a cell viability assay.

[40] = tested on: BPH-1; format: functional, cell-based, Homo sapiens; settings: Homo sapiens, BPH-1;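 also: cell viability assay measuring growth inhibition of human BPH-1 cells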
Description: SANGER: Inhibition of human BPH-1 cell growth in a cell viability assay.

[41] = tested on: RMG-I; format: functional, cell-based, Homo sapiens; settings: Homo sapiens, RMG-I;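 also: growth inhibition of human RMG-I cells, read out with a cell viability assay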
Description: SANGER: Inhibition of human RMG-I cell growth in a cell viability assay.

[42] = tested on: Huh-7; format: functional, cell-based, Homo sapiens; settings: Homo sapiens, Huh-7;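 also: HuH-7 cell growth inhibition, read out with a cell viability assay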
Description: SANGER: Inhibition of human HuH-7 cell growth in a cell viability assay.

[43] = tested on: SBC-1; format: functional, cell-based; settings: Homo sapiens;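 also: cell viability assay measuring growth inhibition of the SBC-1 cell line, IC50 being the concentration that halves growth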
Description: SANGER: Inhibition of human SBC-1 cell growth in a cell viability assay.

[44] = tested on: GCT; format: functional, cell-based, Homo sapiens; settings: Homo sapiens, GCT;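 also: GCT cell line proliferation inhibition, read out with a cell viability assay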
Description: SANGER: Inhibition of human GCT cell growth in a cell viability assay.

[45] = tested on: SAS; format: functional, cell-based, Homo sapiens; settings: Homo sapiens, SAS;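 also: growth inhibition of SAS cells, read out with a cell viability assay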
Description: SANGER: Inhibition of human SAS cell growth in a cell viability assay.

[46] = tested on: SW756; format: functional, cell-based, Homo sapiens; settings: Homo sapiens, SW756;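 also: growth inhibition of human SW756 cells, read out with a cell viability assay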
Description: SANGER: Inhibition of human SW756 cell growth in a cell viability assay.

[47] = tested on: RO82-W-1; format: functional, cell-based, Homo sapiens; settings: Homo sapiens, RO82-W-1;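 also: growth inhibition of human RO82-W-1 cells, measured with a cell viability assay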
Description: SANGER: Inhibition of human RO82-W-1 cell growth in a cell viability assay.

[48] = tested on: EW-1; format: functional, cell-based, Homo sapiens; settings: Homo sapiens, EW-1;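 also: growth inhibition of the human EW-1 cell line, read out by a cell viability assay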
Description: SANGER: Inhibition of human EW-1 cell growth in a cell viability assay.

[49] = tested on: DEL; format: functional, cell-based; settings: Homo sapiens;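 also: growth inhibition of the human DEL cell line, read out with a cell viability assay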
Description: SANGER: Inhibition of human DEL cell growth in a cell viability assay.

[50] = tested on: A101D; format: functional, cell-based, Homo sapiens; settings: Homo sapiens, A101D;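 also: growth inhibition of the cell line, measured with a viability assay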
Description: SANGER: Inhibition of human A101D cell growth in a cell viability assay.

[51] = tested on: RS4-11; format: functional, cell-based; settings: Homo sapiens;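 also: growth inhibition of RS4-11 cells, read out by a cell viability assay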
Description: SANGER: Inhibition of human RS4-11 cell growth in a cell viability assay.

CC(=O)O[C@@]12CO[C@@H]1C[C@H](O)[C@@]1(C)C(=O)[C@H](O)C3=C(C)[C@@H](OC(=O)[C@H](O)[C@@H](NC(=O)OC(C)(C)C)c4ccccc4)C[C@@](O)([C@@H](OC(=O)c4ccccc4)[C@H]21)C3(C)C [DOCETAXEL]
pIC50 [1]: 8.77
pIC50 [2]: 9.63
pIC50 [3]: 8.67
pIC50 [4]: 9.13
pIC50 [5]: 9.02
pIC50 [6]: 9.17
pIC50 [7]: 8.48
pIC50 [8]: 8.93
pIC50 [9]: 8.65
pIC50 [10]: 8.72
pIC50 [11]: < 8.00
pIC50 [12]: 8.74
pIC50 [13]: 9.59
pIC50 [14]: 8.21
pIC50 [15]: 8.17
pIC50 [16]: 8.66
pIC50 [17]: < 8.00
pIC50 [18]: 8.39
pIC50 [19]: < 8.00
pIC50 [20]: 8.55
pIC50 [21]: 8.48
pIC50 [22]: 8.87
pIC50 [23]: 8.51
pIC50 [24]: < 8.00
pIC50 [25]: 8.41
pIC50 [26]: 8.51
pIC50 [27]: 8.72
pIC50 [28]: 9.15
pIC50 [29]: 9.43
pIC50 [30]: < 8.00
pIC50 [31]: 8.65
pIC50 [32]: 8.77
pIC50 [33]: < 8.00
pIC50 [34]: 9.56
pIC50 [35]: 8.35
pIC50 [36]: 8.29
pIC50 [37]: 8.74
pIC50 [38]: 9.25
pIC50 [39]: 8.23
pIC50 [40]: 8.99
pIC50 [41]: < 8.00
pIC50 [42]: < 8.00
pIC50 [43]: 9.37
pIC50 [44]: 8.75
pIC50 [45]: 8.87
pIC50 [46]: 8.67
pIC50 [47]: 8.27
pIC50 [48]: 8.53
pIC50 [49]: 8.52
pIC50 [50]: < 8.00
pIC50 [51]: < 8.00

CC(=O)O[C@@H]1[C@@H](OC(C)=O)[C@@H](O)[C@H](Oc2c(-c3ccc(O)cc3)oc3cc(O)cc(O)c3c2=O)O[C@H]1C
pIC50 [1]: < 5.00
pIC50 [2]: < 5.00
pIC50 [3]: < 5.00
pIC50 [4]: < 5.00
pIC50 [5]: < 5.00
pIC50 [6]: < 5.00
pIC50 [7]: < 5.00
pIC50 [8]: < 5.00
pIC50 [9]: < 5.00
pIC50 [10]: < 5.00
pIC50 [11]: < 5.00
pIC50 [12]: < 5.00
pIC50 [13]: < 5.00
pIC50 [14]: < 5.00
pIC50 [15]: < 5.00
pIC50 [16]: < 5.00
pIC50 [17]: < 5.00
pIC50 [18]: < 5.00
pIC50 [19]: < 5.00
pIC50 [20]: < 5.00
pIC50 [21]: < 5.00
pIC50 [22]: < 5.00
pIC50 [23]: < 5.00
pIC50 [24]: < 5.00
pIC50 [25]: < 5.00
pIC50 [26]: < 5.00
pIC50 [27]: < 5.00
pIC50 [28]: < 5.00
pIC50 [29]: < 5.00
pIC50 [30]: < 5.00
pIC50 [31]: < 5.00
pIC50 [32]: < 5.00
pIC50 [33]: < 5.00
pIC50 [34]: < 5.00
pIC50 [35]: < 5.00
pIC50 [36]: < 5.00
pIC50 [37]: < 5.00
pIC50 [38]: < 5.00
pIC50 [39]: < 5.00
pIC50 [40]: < 5.00
pIC50 [41]: < 5.00
pIC50 [42]: < 5.00
pIC50 [43]: < 5.00
pIC50 [44]: < 5.00
pIC50 [45]: < 5.00
pIC50 [46]: < 5.00
pIC50 [47]: < 5.00
pIC50 [48]: < 5.00
pIC50 [49]: < 5.00
pIC50 [50]: < 5.00
pIC50 [51]: < 5.00

From ChEMBL document CHEMBL1201861, “Genomics of Drug Sensitity in Cancer screening data, Wellcome Trust Sanger Institute”
